In brackets after ≈: the same amount, converted by molar mass. Several values for one entry are separate records, joined by “and”; a condition that tells them apart may be missing. Identical values can stand only once. Like-named read-outs stand apart in the source and are kept apart here.
Tests used:
[1] = tested on: IL-2 production by T cells; assay: PHA-induced IL-2 production, wilforonide (924); assay type: cell-based, human; conditions: for IL-2, mean: control 21.395
Procedure: The effects of wilforonide on IL-2 production was also examined. […] Cell-free supernatants were diluted 1 to 80 and the IL-2 content assayed with CTLL-2 cells.

T cells [2] = assay: PHA-induced T cell proliferation, wilforonide (924); assay type: cell-based, human; conditions: for Mean cpm: control 42.0
Text: The molecular groups responsible for the immune suppressive function of these compounds are unknown, however, the core structure of diterpenoids which may be related to their activity consists of an α-β-unsaturated 5 element lactone which can be identified by Kedde reagents. HPLC was used to fractionate the ethyl acetate extract of TwHF and the Kedde reagents were employed to trace the fractions. Then, the effect of selected fractions on the in vitro IL-2 production and [^3 H]-thymidine incorporation by PHA-activated T cells was determined. Fractions that inhibit these T cell functions were selected and the chromatographic pattern was identified with HPLC. One fraction was further purified with HPLC and crystallized repeatedly; a pure, crystallized compound was obtained and designated "924".
[^3 H]-thymidine was added for the last 14 hours of culture. Each concentration was run in quadruplicate (4 times) and the results for each concentration averaged to provide a mean. The mean cpm×10^3 values were combined and expressed as a percent of T cell inhibition.
or absence of the indicated concentrations of wilforonide for 3 days.
[^3 H]-Thymidine was added for the last 14 hours. Data are from 4
independent experiments.

[3] = Viability of PHA-stimulated T cells, 924; assay type: cell-based, human; conditions: t cells; 1,000 ng/ml; 0 ng/ml=22% of control; FIG. 20D; read-out: Cell viability, % of control
PHA-stimulated T cells = assay: Viability of PHA-stimulated T cells, 924; assay type: cell-based, human
Solubility of 924 = assay type: physicochemical
Procedure: The dried woody skinned part of the root of TwHF was extracted with ethanol. The solution was concentrated at reduced pressure, and the residue was dissolved in ethyl acetate. This solution was passed through Al2 O3 with ethanol as an eluent. The eluate was evaporated and the residue chromatographed on silica gel with chloroform, chloroform-ether and ethyl acetate as successive eluent. The fractions eluted with chloroform-ether were purified on a preparative HPLC column packed with Nova-Pak C18 and equipped with a 214 detector. Methanol-water was the mobile phase. A fraction having positive reaction to Kedde reagent was collected and extracted with chloroform. The chloroform solution was evaporated to dryness and the residue crystallized in dichloromethane-hexane to yield 924.

IL-2R = IL-2R expression by PHA-activated T cells, 924; assay type: cell-based, human
T cells [4] = assay: Antigen (SK)-induced T cell proliferation, wilforonide; assay type: cell-based; conditions: Homo sapiens, read-out: % inhibition of [3H]-thymidine incorporation
T cells [5] = assay: as above; assay type: cell-based, human; conditions: for IC50: 120 h, read-out: ID50, antigen-induced T cell proliferation; for IC50 / inhibition at 0.01 µg/mL: 5 days
Procedure: The cells were allowed to culture for five days. The cultures were pulsed with [^3 H]-thymidine for the last 24 hours of culture. […] ID50 were calculated based on the regression formula by using the fx-3600 calculator. T cells cultured with SK or SK+IL-2 or SK+PMA gave cpm of 1.87×10^3, 4.99×10^3 and 6.67×10^3, respectively.
*T cells were cultured with or without SK(1 mg/ml) or SK plus IL2(50
μ/ml) or SK plus PMA(.2 ng/ml) in the presence or absence of indicated
concentrations of wilforonide for 5 days. Cultures were pulsed with
[^3 H]-thymidine for the last 24 hours. Data represent the mean of th
experiments. ID50 were calculated based on the regression formula by
using the fx3600 calculator. T cells cultured with SK or SL + IL2 or SK +

C[C@]12CCC3=C(COC3=O)[C@@H]1CCC(=O)C2 (relative stereo) [Wilforonide, naphtho-[1,2-c] furan-3,7(1H,5H)-dione, 4,5a,6,8,9,9a-hexahydro-5a-methyl(5aR-trans)-[104331-87-5]]
IL-2, individual experiments 1-4 ([1]; 10 ng/ml, PHA 1 μg/ml, overnight): 1.628 unit/ml and 20.723 unit/ml and 27.374 unit/ml and 3.385 unit/ml | IL-2, mean ([1]; 10 ng/ml): 13.278 unit/ml | IL-2, individual experiments 1-4 ([1]; 50 ng/ml): 1.664 unit/ml and 26.983 unit/ml and 4.509 unit/ml and 6.042 unit/ml | IL-2, mean ([1]; 50 ng/ml): 9.795 unit/ml | IL-2, individual experiments 1-4 ([1]; 100 ng/ml): 0.800 unit/ml and 11.160 unit/ml and 10.170 unit/ml and 4.982 unit/ml | IL-2, mean ([1]; 100 ng/ml): 6.803 unit/ml | IL-2, individual experiments 1-4 ([1]; 200 ng/ml): 0.850 unit/ml and 10.301 unit/ml and 8.502 unit/ml and 1.773 unit/ml | IL-2, mean ([1]; 200 ng/ml): 5.357 unit/ml | inhibition at 0.01 µg/mL ([1]; Homo sapiens, T-cell, 10 ng/ml): 37.9% | inhibition at 0.05 µg/mL ([1]; Homo sapiens, T-cell, 50 ng/ml): 54.2% | inhibition at 0.1 µg/mL ([1]; Homo sapiens, T-cell, 100 ng/ml): 68.2% | inhibition at 0.2 µg/mL ([1]; Homo sapiens, T-cell, 200 ng/ml): 75% | IC50 ([1]; Homo sapiens, T-cell, PHA 1 μg/ml, overnight, read-out: ID50, PHA-induced IL-2 production): 0.0421 µg/mL (≈ 0.191 µM) | cpm, individual experiments 1-4 (T cells [2]; 10 ng/ml, PHA 0.5 μg/ml, 3 days): 23.5 cpm × 10^3 and 37.1 cpm × 10^3 and 57.5 cpm × 10^3 and 36.3 cpm × 10^3 | Mean cpm (T cells [2]; 10 ng/ml): 38.6 cpm × 10^3 | cpm, individual experiments 1-4 (T cells [2]; 50 ng/ml): 30.2 cpm × 10^3 and 35.3 cpm × 10^3 and 57.0 cpm × 10^3 and 44.8 cpm × 10^3 | Mean cpm (T cells [2]; 50 ng/ml): 41.8 cpm × 10^3 | cpm, individual experiments 1-4 (T cells [2]; 100 ng/ml): 13.0 cpm × 10^3 and 37.6 cpm × 10^3 and 55.2 cpm × 10^3 and 26.7 cpm × 10^3 | Mean cpm (T cells [2]; 100 ng/ml): 33.1 cpm × 10^3 | cpm, individual experiments 1-4 (T cells [2]; 200 ng/ml): 6.8 cpm × 10^3 and 33.9 cpm × 10^3 and 56.5 cpm × 10^3 and 26.4 cpm × 10^3 | Mean cpm (T cells [2]; 200 ng/ml): 30.9 cpm × 10^3 | cpm, individual experiments 1-4 (T cells [2]; 500 ng/ml): 0.3 cpm × 10^3 and 19.7 cpm × 10^3 and 30.9 cpm × 10^3 and 11.3 cpm × 10^3 | Mean cpm (T cells [2]; 500 ng/ml): 15.6 cpm × 10^3 | T cell proliferation (T cells [2]; 1,000 ng/ml, FIG. 20C): no cell proliferation was evident | inhibition at 0.01 µg/mL (T cells [2]; Homo sapiens, T-cell, 72 h, 10 ng/ml, PHA 0.5 μg/ml, 3 days): 8.09% | IC50 (T cells [2]; Homo sapiens, T-cell, 72 h, PHA 0.5 μg/ml, 3 days, read-out: ID50, PHA-induced T cell proliferation): 0.391 µg/mL (≈ 1.78 µM) | inhibition at 0.001 µg/mL (T cells [2]; Homo sapiens, T-cell, 1 ng/ml, PHA, read-out: Degree of inhibition of T cell proliferation): 14.6% | inhibition at 0.05 µg/mL (T cells [2]; Homo sapiens, T-cell, 50 ng/ml, PHA): 0.48% | inhibition at 0.1 µg/mL (T cells [2]; Homo sapiens, T-cell, 100 ng/ml, PHA, read-out: % inhibition): 21.2% | inhibition at 0.1 µg/mL (T cells [2]; Homo sapiens, T-cell, 100 ng/ml, PHA, read-out: Degree of inhibition of T cell proliferation): 54.2% | inhibition at 0.2 µg/mL (T cells [2]; Homo sapiens, T-cell, 200 ng/ml, PHA): 26.4% | inhibition at 0.5 µg/mL (T cells [2]; Homo sapiens, T-cell, 500 ng/ml, PHA): 62.9% | viability [3]: 35% | Viability of PHA-stimulated T cells (PHA-stimulated T cells; 1 ng/ml up to 1000 ng/ml): did not affect the viability of PHA-stimulated T cells | Cell viability (PHA-stimulated T cells; 1 to 500 ng/ml): did not differ significantly in terms of cell viability | in vitro ID50/LD50 of T cell proliferation (PHA-stimulated T cells; t cells): more than 10 | Solubility (Solubility of 924): soluble in ethanol, and ethanol and chloroform | IL-2R expression (IL-2R; 500 ng/ml): did not affect the IL-2R expression | IL-2R expression (IL-2R; PHA-activated T cells): no effect | inhibition at 0.05 µg/mL (T cells [4]; SK + IL-2, 50 ng/ml): 12.4% | inhibition at 0.1 µg/mL (T cells [4]; SK + IL-2, 100 ng/ml): 14.5% | inhibition at 1 µg/mL (T cells [4]; SK + IL-2, 1,000 ng/ml): 86.2% | inhibition at 0.1 µg/mL (T cells [4]; SK + PMA, 100 ng/ml): 20.3% | inhibition at 1 µg/mL (T cells [4]; SK + PMA, 1,000 ng/ml): 65.4% | inhibition at 0.05 µg/mL (T cells [4]; SK, 50 ng/ml): 44.5% | inhibition at 0.1 µg/mL (T cells [4]; SK, 100 ng/ml): 49.1% | inhibition at 0.5 µg/mL (T cells [4]; SK, 500 ng/ml): 75.2% | inhibition at 1 µg/mL (T cells [4]; SK, 1,000 ng/ml): 84.2% | IC50 (T cells [5]; Homo sapiens, T-cell, SK + IL-2 (50 u/ml)): 0.476 µg/mL | IC50 (T cells [5]; Homo sapiens, T-cell, SK + PMA (0.2 ng/ml)): 0.613 µg/mL | IC50 (T cells [5]; Homo sapiens, T-cell, SK): 0.127 µg/mL (≈ 0.577 µM) | inhibition at 0.01 µg/mL (T cells [5]; Homo sapiens, T-cell, SK + IL-2, 10 ng/ml, read-out: % inhibition of [3H]-thymidine incorporation): 19.6% | inhibition at 0.5 µg/mL (T cells [5]; Homo sapiens, T-cell, SK + IL-2, 500 ng/ml, read-out: % inhibition of [3H]-thymidine incorporation): 61.7% | inhibition at 0.01 µg/mL (T cells [5]; Homo sapiens, T-cell, SK + PMA, 10 ng/ml, read-out: % inhibition of [3H]-thymidine incorporation): 22.7% | inhibition at 0.05 µg/mL (T cells [5]; Homo sapiens, T-cell, SK + PMA, 50 ng/ml, read-out: % inhibition of [3H]-thymidine incorporation): 17.7% | inhibition at 0.5 µg/mL (T cells [5]; Homo sapiens, T-cell, SK + PMA, 500 ng/ml, read-out: % inhibition of [3H]-thymidine incorporation): 53.3% | inhibition at 0.01 µg/mL (T cells [5]; Homo sapiens, T-cell, SK, 10 ng/ml, read-out: % inhibition of [3H]-thymidine incorporation): 42.1% | Inhibition of response to SK on adding IL2 or PMA (T cells [5]; low concentrations): partially overcome by adding IL2 or PMA

— patent publication US5846742A, “Selecting substances for treating glucocorticoid-mediated inflammation or immune diseases using Tripterygium wilfordii Hook F extracts” (Board of Regents, The University of Texas System, priority 1997, dated 1998)
